From the supplement of paper PMC10920090

Legend:
[1] = test system: MDA-MB-231; test: drug sensitivity score (DSS), cytotoxicity CellTox Green; higher = more cytotoxic; extreme values may be limits of the assay; settings: 72 h
[2] = test system: MDA-MB-231; test: drug sensitivity score (DSS), cell viability CellTiter-Glo; higher = more sensitive; extreme values may be limits of the assay; settings: 72 h
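For drug sensitivity score (DSS), cytotoxicity CellTox Green in this document: DSS summarises each dose–response curve by combining IC50, EC50, maximal inhibition and efficacy across drug concentrations.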

Row | Compound | drug sensitivity score ([1]; shRNA: shPPFIA1_1) [DSS] | drug sensitivity score ([1]; shRNA: shScramble) [DSS] | drug sensitivity score ([2]; shRNA: shPPFIA1_1) [DSS] | drug sensitivity score ([2]; shRNA: shScramble) [DSS]
1 | C[C@H]1C[C@@H]2[C@H]([C@@H](O)C[C@@]3(C)[C@H]2CC[C@]3(O)C(=O)CO)[C@@]2(C)C=CC(=O)C=C12 [Methylprednisolone] | 0 | 0 | 0 | 0
2 | C[C@H](Nc1ncnc2nc[nH]c12)c1cc2cccc(Cl)c2c(=O)n1-c1ccccc1 [Duvelisib] | 0 | 3.3 | 3 | 0
3 | CO[C@H](C(=O)[C@@H](O)[C@@H](C)O)[C@@H]1Cc2cc3cc(O[C@H]4C[C@@H](O[C@@H]5C[C@@H](O)[C@H](O)[C@@H](C)O5)[C@H](O)[C@@H](C)O4)c(C)c(O)c3c(O)c2C(=O)[C@H]1O[C@H]1C[C@@H](O[C@@H]2C[C@@H](O)[C@@H](O[C@@H]3C[C@](C)(O)[C@H](O)[C@@H](C)O3)[C@@H](C)O2)[C@H](O)[C@@H](C)O1 [Plicamycin] | 8.5 | 7.1 | 6.2 | 11.6
4 | C/C(=C\c1csc(C)n1)[C@@H]1C[C@@H]2O[C@]2(C)CCC[C@H](C)[C@H](O)[C@@H](C)C(=O)C(C)(C)[C@@H](O)CC(=O)O1 [Patupilone] | 8.3 | 5.8 | 0 | 12.3
5 | C[C@H]1Oc2cc(cnc2N)-c2c(nn(C)c2C#N)CN(C)C(=O)c2ccc(F)cc21 | 0 | 0 | 0 | 0
6 | CCN1CCN(Cc2ccc(-c3cc4c(N[C@H](C)c5ccccc5)ncnc4[nH]3)cc2)CC1 [NVP-AEE788] | 0 | 0 | 0.4 | 0.8
7 | Cn1cc(-c2cnn3c(N)c(Br)c([C@@H]4CCCNC4)nc23)cn1 [MK-8776] | 0 | 0 | 0 | 2.9
8 | CC(C)(C)C[C@@H]1N[C@@H](C(=O)N[C@H]2CC[C@H](O)CC2)[C@H](c2cccc(Cl)c2F)[C@]12C(=O)Nc1cc(Cl)ccc12 | 0 | 0.7 | 0 | 0
9 | C[C@@H](Oc1cc(-n2cnc3ccc(CN4CCN(C)CC4)cc32)sc1C(N)=O)c1ccccc1C(F)(F)F | 10 | 7 | 1.5 | 5.2
10 | CCC1(c2ccc(N)cc2)CCC(=O)NC1=O (configuration not stated) [Aminoglutethimide] | 0 | 0 | 0 | 0
11 | Nc1ncnc2c1nc(N)n2[C@@H]1O[C@H](CO)[C@@H](O)[C@H]1O [8-amino-adenosine] | 12.2 | 13.8 | 18.1 | 22.8
12 | CC(C)C[C@H](NC(=O)[C@@H](COC(C)(C)C)NC(=O)[C@H](Cc1ccc(O)cc1)NC(=O)[C@H](CO)NC(=O)[C@H](Cc1c[nH]c2ccccc12)NC(=O)[C@H](Cc1cnc[nH]1)NC(=O)[C@@H]1CCC(=O)N1)C(=O)N[C@@H](CCCNC(=N)N)C(=O)N1CCC[C@H]1C(=O)NNC(N)=O [Goserelin] | 0 | 0 | 0 | 0
13 | O=C(Nc1nc2cccc(-c3ccc(CN4CCS(=O)(=O)CC4)cc3)n2n1)C1CC1 [Filgotinib] | 0 | 0 | 0 | 0.2
14 | Cc1ccc(C(=O)Nc2ccc(Oc3cc4cnn(C)c4cc3-c3cn[nH]c3)c(F)c2)c(=O)n1-c1ccc(F)cc1 [Merestinib] | 0 | 0 | 9 | 0
15 | Cn1cc(C2=Nc3cc(NC(=O)C(N)C4CCCCC4)cc4c3C2=CNNC4=O)cn1 (configuration not stated) | 3 | 0.8 | 7.8 | 9.4
16 | CC(C)n1cnc2c(NCCc3ccc(O)cc3)nc(-c3csc4ccccc34)nc21 [StemRegenin 1] | 0.8 | 0.4 | 2.3 | 0.2

Row | Compound | drug sensitivity score ([1]; shRNA: shPPFIA1_1) [DSS] | drug sensitivity score ([1]; shRNA: shScramble) [DSS] | drug sensitivity score ([2]; shRNA: shPPFIA1_1) [DSS] | drug sensitivity score ([2]; shRNA: shScramble) [DSS]
17 | NS(=O)(=O)NCCNc1nonc1/C(=N/O)Nc1ccc(F)c(Br)c1 [Epacadostat] | 0 | 0 | 0 | 0
18 | Cc1c(Cn2c(C)nc3c(C(=O)O)cc(N4CCOCC4)cc32)cccc1C(F)(F)F | 0 | 0 | 3.6 | 2.8
19 | CCNc1nc(Nc2cc(F)c(C(=O)N3CCOCC3)cc2OC)ncc1C(F)(F)F [GNE-7915] | 0 | 0 | 0 | 0
20 | CC(C)(C)c1cnc(CSc2cnc(NC(=O)C3CCNCC3)s2)o1 [SNS-032] | 10.5 | 6.3 | 5.8 | 13.1
21 | CC(O)(CS(=O)(=O)c1ccc(F)cc1)C(=O)Nc1ccc(C#N)c(C(F)(F)F)c1 (configuration not stated) [Bicalutamide] | 0 | 0 | 0 | 0.2
22 | CCn1c(-c2nonc2N)nc2cnc(Oc3cccc(NC(=O)c4ccc(OCCN5CCOCC5)cc4)c3)cc21 | 0 | 0 | 0 | 1.5
23 | Cc1cccc(CC(=O)N2CCc3c2ccc(-c2cn(C)c4ncnc(N)c24)c3F)n1 | 15 | 0 | 0 | 0.3
24 | O=C(O)c1ccc(CN2CCC(CN[C@@H]3C[C@H]3c3ccccc3)CC2)cc1 | 0 | 0 | 0 | 0
25 | Cc1cc(OCc2nnc(SC3CCCC3)n2-c2cccnc2)ccc1-c1ccc(S(C)(=O)=O)cc1 [NMS-873] | 7.6 | 7.4 | 6.8 | 14.7
26 | O=C(NOCC1CC1)c1ccc(F)c(F)c1Nc1ccc(I)cc1Cl | 6.2 | 8.5 | 1.8 | 7.7
27 | N#CCNC(=O)c1ccc(-c2ccnc(Nc3ccc(N4CCOCC4)cc3)n2)cc1 [Momelotinib] | 0 | 0 | 0 | 0
28 | Cn1cc(C[C@@H](N)C(=O)O)c2ccccc21 [1-methyl-D-tryptophan] | 0 | 0 | 0 | 0.9
29 | CC(C)(C)NC(=O)[C@H]1CC[C@H]2[C@@H]3CC[C@H]4NC(=O)C=C[C@]4(C)[C@H]3CC[C@]12C [Finasteride] | 0 | 0 | 0 | 0
30 | Cc1ncc(Cl)cc1NCc1ccc(C(=O)N[C@@H](CC2CCCC2)C(=O)NC2CC2)s1 | 0 | 0 | 0 | 0
31 | Cc1ccc(C(=O)Nc2ccc(CN3CCN(C)CC3)c(C(F)(F)F)c2)cc1C#Cc1cnc2cccnn12 [Ponatinib] |  |  | 0.1 | 3.6
